Experimental findings from ChEMBL document CHEMBL4138076, “Methyllysine binding domains: Structural insight and small molecule probe development” (Eur J Med Chem, 2017) are described below.

The target of experiment [1] is Lysine-specific demethylase 5A (Homo sapiens, UniProt P29375). The experiment in a line: Inhibition of JARID1A (unknown origin).
Experiment [2] deals with Histone-lysine N-methyltransferase 2A (Homo sapiens, UniProt Q03164). The experiment in a line: Binding affinity to 15N-labeled GST-tagged MLL1 PHD3 finger domain (1565 to 1627 residues) (unknown origin) expressed in Escherichia coli Rosetta2 BL21(DE3) pLysS cells by NMR Spectroscopy method.

A word on the Kd: it is the free concentration of one partner at which half of the binding sites on the other are occupied at equilibrium, for simple one-to-one binding. Low values mean a tighter complex, high ones a looser complex.

Chain of Lysine-specific demethylase 5A (P29375 whole entry, the tested form may be a part): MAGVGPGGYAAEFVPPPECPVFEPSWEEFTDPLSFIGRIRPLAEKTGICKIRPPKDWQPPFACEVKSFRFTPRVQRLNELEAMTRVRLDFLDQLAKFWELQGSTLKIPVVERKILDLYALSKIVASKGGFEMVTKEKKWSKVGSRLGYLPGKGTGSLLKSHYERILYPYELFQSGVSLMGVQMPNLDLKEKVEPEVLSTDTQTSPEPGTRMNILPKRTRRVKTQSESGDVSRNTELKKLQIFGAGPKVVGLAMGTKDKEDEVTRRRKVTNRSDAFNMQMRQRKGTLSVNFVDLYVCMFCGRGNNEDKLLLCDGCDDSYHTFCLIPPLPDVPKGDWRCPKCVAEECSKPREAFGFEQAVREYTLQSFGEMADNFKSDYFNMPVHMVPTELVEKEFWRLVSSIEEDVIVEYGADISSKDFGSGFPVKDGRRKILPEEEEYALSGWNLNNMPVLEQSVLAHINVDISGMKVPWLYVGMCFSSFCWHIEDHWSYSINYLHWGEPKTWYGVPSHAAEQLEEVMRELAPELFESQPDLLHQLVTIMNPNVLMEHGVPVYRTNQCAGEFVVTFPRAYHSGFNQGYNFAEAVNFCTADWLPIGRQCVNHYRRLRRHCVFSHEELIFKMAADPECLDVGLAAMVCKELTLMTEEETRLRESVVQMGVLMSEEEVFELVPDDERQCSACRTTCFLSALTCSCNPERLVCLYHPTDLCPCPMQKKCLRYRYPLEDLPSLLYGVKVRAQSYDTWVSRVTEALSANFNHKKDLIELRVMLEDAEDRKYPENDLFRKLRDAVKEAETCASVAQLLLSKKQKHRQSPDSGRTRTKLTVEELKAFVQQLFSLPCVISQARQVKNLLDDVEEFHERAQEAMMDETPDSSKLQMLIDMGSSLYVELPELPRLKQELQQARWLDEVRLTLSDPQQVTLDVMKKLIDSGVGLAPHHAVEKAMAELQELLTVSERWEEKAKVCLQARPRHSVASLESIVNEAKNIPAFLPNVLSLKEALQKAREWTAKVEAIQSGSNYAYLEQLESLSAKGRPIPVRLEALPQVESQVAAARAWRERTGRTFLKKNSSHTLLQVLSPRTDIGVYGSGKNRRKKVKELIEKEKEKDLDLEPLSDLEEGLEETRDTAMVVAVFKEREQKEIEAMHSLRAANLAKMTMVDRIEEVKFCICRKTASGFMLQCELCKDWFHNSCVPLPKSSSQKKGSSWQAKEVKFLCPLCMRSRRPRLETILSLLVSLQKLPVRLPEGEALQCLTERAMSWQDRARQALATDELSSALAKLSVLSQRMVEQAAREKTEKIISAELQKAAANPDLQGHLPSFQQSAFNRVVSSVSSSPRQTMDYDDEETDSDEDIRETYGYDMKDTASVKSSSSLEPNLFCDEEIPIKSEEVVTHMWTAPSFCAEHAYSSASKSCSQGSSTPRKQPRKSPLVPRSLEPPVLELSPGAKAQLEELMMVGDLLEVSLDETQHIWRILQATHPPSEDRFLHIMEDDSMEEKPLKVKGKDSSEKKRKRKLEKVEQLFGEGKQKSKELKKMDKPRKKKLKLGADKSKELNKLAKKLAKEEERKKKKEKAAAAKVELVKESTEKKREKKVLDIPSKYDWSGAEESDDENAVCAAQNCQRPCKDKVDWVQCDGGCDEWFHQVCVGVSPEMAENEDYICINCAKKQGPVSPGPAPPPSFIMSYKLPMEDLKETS

Turning to `C[C@H](NC(=O)[C@H](CCCCN)NC(=O)CNC(=O)CNC(=O)[C@@H](NC(=O)[C@H](CO)NC(=O)[C@H](CCCCN)NC(=O)[C@H](CCCNC(=N)N)NC(=O)[C@H](C)NC(=O)[C@@H](NC(=O)[C@H](CCC(N)=O)NC(=O)[C@H](CCCC[N+](C)(C)C)NC(=O)[C@@H](NC(=O)[C@H](CCCNC(=N)N)NC(=O)[C@H](C)NC(=S)Nc1ccc(C2=C3C=CC(O)=CC3Oc3cc(O)ccc32)c(C(=O)O)c1)[C@@H](C)O)[C@@H](C)O)[C@@H](C)O)C(=O)O` (some centres not stated), the results for the Kd in experiment [1] and in experiment [2] were 800 to 900 nM and 20 µM, respectively.
